ChEMBL document CHEMBL2380242, “Discovery of novel orally bioavailable GPR40 agonists” (Bioorg Med Chem Lett, 2013)
The source made the active and inactive calls. The calls are words filed in the database; no cut-off is given here.

Key:
[1] = target: T1, Free fatty acid receptor 1 (Homo sapiens, UniProt O14842); experiment: Agonist activity at human GPR40 transfected in CHO cells by calcium flux assay relative to TAK-875; assay type: functional, cell-based
[2] = target: T1, Free fatty acid receptor 1; experiment: Agonist activity at human GPR40 transfected in CHO cells by calcium flux assay; assay type: functional, cell-based
[3] = test system: Mus musculus; experiment: Antidiabetic activity in high fat feasted ICR mouse assessed as reduction of blood glucose excursion at 50 mg/kg, po administered 15 mins prior to dextrose challenge measured for 120 mins by OGTT; assay type: functional, organism-based; set-up: dose 50 mg/kg
[4] = target: Free fatty acid receptor 1 (Rattus norvegicus) (UniProt Q8K3T4); experiment: Agonist activity at GPR40 in rat INS-1 cells assessed as glucose-stimulated insulin secretion relative to TAK-875; assay type: cell-based; details: INS1
[5] = test system: Mus musculus; experiment: Antidiabetic activity in high fat feasted ICR mouse assessed as inhibition of blood glucose excursion at 50 mg/kg, po administered 15 mins prior to dextrose challenge measured for 120 mins by OGTT relative to control; assay type: functional
[6] = Half life in rat at 5 mg/kg, po; assay type: ADME, organism-based; set-up: dose 5 mg/kg, route oral; details: in vivo
[7] = test system: Rattus norvegicus; experiment: Volume of distribution in rat at 5 mg/kg, po; assay type: ADME, organism-based; set-up: dose 5 mg/kg, route oral; details: in vivo
[8] = Plasma clearance in rat at 5 mg/kg, po; assay type: ADME, organism-based; set-up: dose 5 mg/kg, route oral
[9] = AUC in rat at 5 mg/kg, po; assay type: ADME, organism-based; set-up: dose 5 mg/kg, route oral; details: plasma
[10] = Cmax in rat at 5 mg/kg, po; assay type: ADME, organism-based; set-up: dose 5 mg/kg, route oral; details: in vivo

T1 sequence (O14842 whole entry): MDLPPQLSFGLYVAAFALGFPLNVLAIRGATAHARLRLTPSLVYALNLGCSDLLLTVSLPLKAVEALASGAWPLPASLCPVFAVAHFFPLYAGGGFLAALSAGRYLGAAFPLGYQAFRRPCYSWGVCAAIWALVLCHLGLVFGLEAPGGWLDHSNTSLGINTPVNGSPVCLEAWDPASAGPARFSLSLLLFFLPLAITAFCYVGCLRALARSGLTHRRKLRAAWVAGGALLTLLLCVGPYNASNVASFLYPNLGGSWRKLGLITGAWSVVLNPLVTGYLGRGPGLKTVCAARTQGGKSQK
Free fatty acid receptor 1 (Rattus norvegicus), sequence (Q8K3T4 whole entry): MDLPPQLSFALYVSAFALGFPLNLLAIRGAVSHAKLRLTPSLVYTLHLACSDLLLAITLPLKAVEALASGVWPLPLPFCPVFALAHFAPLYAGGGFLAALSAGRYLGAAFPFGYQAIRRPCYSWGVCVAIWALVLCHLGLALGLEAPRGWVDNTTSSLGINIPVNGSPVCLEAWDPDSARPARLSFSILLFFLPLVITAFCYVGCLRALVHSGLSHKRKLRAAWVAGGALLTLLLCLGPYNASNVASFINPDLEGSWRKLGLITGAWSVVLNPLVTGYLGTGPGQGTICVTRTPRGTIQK

In the case of `Cc1cc(OCCCS(C)(=O)=O)cc(C)c1-c1ccc(F)c([C@@H]2COc3cc4c(cc3O2)OC[C@H]4CC(=O)O)c1`, the Emax [1] is reported as 87%, the EC50 [2] is reported as 46.5 nM and the Activity [3] is reported as “inactive”.
In the case of `Cc1cc(OCCCS(C)(=O)=O)c(F)c(C)c1-c1cccc([C@@H]2COc3cc4c(cc3O2)OC[C@H]4CC(=O)O)c1`, the Emax [1] is reported as 83% and the EC50 [2] is reported as 82.4 nM.
In the case of `O=C(O)C[C@@H]1COc2cc3c(cc21)OC[C@H](c1cccc(Br)c1)O3`, the Emax [1] is reported as 105% and the EC50 [2] is reported as 111 nM.
With `O=C(O)C[C@@H]1COc2cc3c(cc21)OC[C@H](c1cccc(C(F)(F)F)c1)O3` the Emax [1] was 55.6% and the EC50 [2] was 30.4 nM.
In the case of `Cc1cc(OCCCS(C)(=O)=O)cc(C)c1-c1ccc(F)c([C@H]2COc3cc4c(cc3O2)OC[C@H]4CC(=O)O)c1`, the Emax [1] is reported as 83%, the EC50 [2] is reported as 67.5 nM and the Activity [3] is reported as “Active”.
For `O=C(O)C[C@@H]1COc2cc3c(cc21)OCC(c1cccc(-c2ccc(F)cc2Cl)c1)O3` (stereo partly specified), the Emax [1] was 103% and the EC50 [2] was 74.7 nM.
Compound `O=C(O)C[C@@H]1COc2cc3c(cc21)OC[C@H](c1cccc(-c2ccccc2Cl)c1)O3` (mixture of isomers) has an Emax [1] of 97% and an EC50 [2] of 56.7 nM.
With `O=C(O)C[C@@H]1COc2cc3c(cc21)OC[C@H](c1ccc(Cl)c(Cl)c1)O3` the Emax [1] was 61% and the EC50 [2] was 191 nM.
For `O=C(O)C[C@@H]1COc2cc3c(cc21)OCC(c1ccc(Br)cc1)O3` (stereo partly specified), the Emax [1] was 38% and the EC50 [2] was > 10000 nM.
Compound `Cc1cc(OCCCS(C)(=O)=O)ccc1-c1cccc(C2COc3cc4c(cc3O2)OC[C@H]4CC(=O)O)c1` (stereo partly specified) has an Emax [1] of 53% and an EC50 [2] of 123 nM.
Compound `O=C(O)C[C@@H]1COc2cc3c(cc21)OCC(c1cccc(-c2ccccc2F)c1)O3` (stereo partly specified) has an Emax [1] of 115% and an EC50 [2] of 73.2 nM.
`Cc1ccc(-c2cccc(C3COc4cc5c(cc4O3)OC[C@H]5CC(=O)O)c2)c(C)c1` (stereo partly specified) gave an Emax [1] of 90% and an EC50 [2] of 38.7 nM.
`O=C(O)C[C@@H]1COc2cc3c(cc21)OC[C@@H](c1ccc(Cl)c(Cl)c1)O3` gave an Emax [1] of 129%, an Emax [4] of 46.8% and an inhibition in vivo at 50 mg/kg [5] of 4.9%. It also gave an EC50 [2] of 16 nM, a half-life [6] of 13.3 h and a Vd [7] of 0.25 L/kg. The CL/F [8] was 0.167 mL/min/kg, the AUC [9] was 337 µg·h/mL and the Cmax [10] was 18900 ng/mL.
`O=C(O)C[C@@H]1COc2cc3c(cc21)OC[C@@H](c1cccc(-c2ccccc2Cl)c1)O3` showed an Emax [1] of 99% and an EC50 [2] of 66.7 nM.
`CS(=O)(=O)CCCOc1ccc(-c2cc(F)cc(C3COc4cc5c(cc4O3)OC[C@H]5CC(=O)O)c2)c(Cl)c1` (stereo partly specified) gave an Emax [1] of 69% and an EC50 [2] of 205 nM.
Compound `Cc1cc(C)cc(-c2cccc(C3COc4cc5c(cc4O3)OC[C@H]5CC(=O)O)c2)c1` (stereo partly specified) has an Emax [1] of 68% and an EC50 [2] of 132 nM.
`Cc1cccc(C)c1-c1cccc([C@H]2COc3cc4c(cc3O2)OC[C@H]4CC(=O)O)c1` gave an Emax [1] of 72% and an EC50 [2] of 30.1 nM.
Work on `Cc1ccc(C)c(-c2cccc(C3COc4cc5c(cc4O3)OC[C@H]5CC(=O)O)c2)c1` (stereo partly specified) yielded an Emax [1] of 89% and an EC50 [2] of 88 nM.
In the case of `O=C(O)C[C@@H]1COc2cc3c(cc21)OCC(c1cc(F)cc(Br)c1)O3` (stereo partly specified), the Emax [1] is reported as 38% and the EC50 [2] is reported as 105 nM.
`Cc1cc(OCCCS(C)(=O)=O)c(F)c(C)c1-c1cccc([C@H]2COc3cc4c(cc3O2)OC[C@H]4CC(=O)O)c1` showed an Emax [1] of 77% and an EC50 [2] of 121 nM.
For `Cc1cccc(C)c1-c1cccc([C@@H]2COc3cc4c(cc3O2)OC[C@H]4CC(=O)O)c1`, the Emax [1] was 85% and the EC50 [2] was 52.9 nM.
Work on `Cc1cc(OCCCS(C)(=O)=O)cc(C)c1-c1cccc([C@@H]2COc3cc4c(cc3O2)OC[C@H]4CC(=O)O)c1` yielded an Emax [1] of 124% and an EC50 [2] of 55.9 nM.
`Cc1cc(C)c(-c2cccc(C3COc4cc5c(cc4O3)OC[C@H]5CC(=O)O)c2)c(C)c1` (stereo partly specified) gave an Emax [1] of 103% and an EC50 [2] of 61.6 nM.
For `CS(=O)(=O)CCCOc1ccc(-c2ccc(F)c(C3COc4cc5c(cc4O3)OC[C@H]5CC(=O)O)c2)c(Cl)c1` (stereo partly specified), the Emax [1] was 102% and the EC50 [2] was 56.2 nM.
For `O=C(O)C[C@@H]1COc2cc3c(cc21)OC[C@H](c1cccc(Cl)c1)O3`, the Emax [1] was 72% and the EC50 [2] was 220 nM.
`CS(=O)(=O)CCCOc1ccc(-c2cc(C3COc4cc5c(cc4O3)OC[C@H]5CC(=O)O)ccc2F)c(Cl)c1` (stereo partly specified) gave an Emax [1] of 66% and an EC50 [2] of 125 nM.
Compound `Cc1ccccc1-c1cccc([C@@H]2COc3cc4c(cc3O2)OC[C@H]4CC(=O)O)c1` has an Emax [1] of 76% and an EC50 [2] of 39.3 nM.
`O=C(O)C[C@@H]1COc2cc3c(cc21)OCC(c1cccc(C2CC2)c1)O3` (stereo partly specified) gave an Emax [1] of 66% and an EC50 [2] of 36.4 nM.
With `CS(=O)(=O)CCCOc1ccc(-c2cccc([C@@H]3COc4cc5c(cc4O3)OC[C@H]5CC(=O)O)c2)c(Cl)c1` the Emax [1] was 89% and the EC50 [2] was 94.8 nM.
`CS(=O)(=O)CCCOc1ccc(-c2cccc([C@H]3COc4cc5c(cc4O3)OC[C@H]5CC(=O)O)c2)c(Cl)c1` showed an Emax [1] of 71% and an EC50 [2] of 145 nM.
`O=C(O)C[C@@H]1COc2cc3c(cc21)OCC(c1cccc(-c2ccccc2C(F)(F)F)c1)O3` (stereo partly specified) gave an Emax [1] of 104% and an EC50 [2] of 74.5 nM.
Work on `O=C(O)C[C@@H]1COc2cc3c(cc21)OCC(c1cc(F)cc(C(F)(F)F)c1)O3` (stereo partly specified) yielded an Emax [1] of 79% and an EC50 [2] of 63.7 nM.
Work on `O=C(O)C[C@@H]1COc2cc3c(cc21)OCC(c1cccc(-c2ccccc2)c1)O3` (stereo partly specified) yielded an Emax [1] of 105% and an EC50 [2] of 65.4 nM.
Work on `Cc1cc(F)ccc1-c1cccc(C2COc3cc4c(cc3O2)OC[C@H]4CC(=O)O)c1` (stereo partly specified) yielded an Emax [1] of 77% and an EC50 [2] of 35.9 nM.
With `Cc1cc(OCCCS(C)(=O)=O)cc(C)c1-c1cccc([C@H]2COc3cc4c(cc3O2)OC[C@H]4CC(=O)O)c1` the Emax [1] was 111% and the EC50 [2] was 282 nM.
Compound `O=C(O)C[C@@H]1COc2cc3c(cc21)OCC(c1cccc(Br)c1)O3` (stereo partly specified) has an Emax [1] of 89% and an EC50 [2] of 54.7 nM.
